Measurements reported in the COVID Moonshot data (paper PMC11187573), “Identification of SARS-CoV-2 Mpro inhibitors through deep reinforcement learning for de novo drug design and computational chemistry approaches” (RSC Medicinal Chemistry, 2024).

How the values were obtained:
[1] = biological target: SARS-CoV-2 Main Protease (SARS-CoV-2) (UniProt P0DTD1)
Protocol: Compounds were seeded into assay-ready plates (Greiner 384 low volume, cat 784900) using an Echo 555 acoustic dispenser, and DMSO was back-filled for a uniform concentration in assay plates (DMSO concentration maximum 1%) Screening assays were performed in duplicate at 20µM and 50µM. […] Dose response assays were performed in 12 point dilutions of 2-fold, typically beginning at 100µM. […] Reagents for Mpro assay were dispensed into the assay plate in 10µl volumes for a final volume of 20µL.
Mpro was pre-incubated for 15 minutes at room temperature with compound before addition of substrate and a further 30 minute incubation. Protease reaction was measured in a BMG Pherastar FS with a 480/520 ex/em filter set. Raw data was mapped and normalized to high (Protease with DMSO) and low (No Protease) controls using Genedata Screener software.

[2] = biological target: SARS-CoV-2 Main Protease (SARS-CoV-2) (UniProt P0DTD1); remark: listed apart in the source

CN(C)C/C=C/C(=O)Nc1c[nH]c2ccccc12
relative solubility at 20 uM: 1 | relative solubility at 100 uM: 1 | inhibition ([1]; 20.0 µM): 5.8% | inhibition ([1]; 50.0 µM): 22.5% | inhibition ([2]; 20.0 µM): 0%

C=CC(=O)N(c1ccc(C(F)(F)F)cc1)C(C(=O)NCCc1cccc(F)c1)c1cncc(C#N)c1 (centres undefined)
relative solubility at 20 uM: 1 | relative solubility at 100 uM: 0.99 | inhibition ([1]; 20.0 µM): 53.5% | inhibition ([1]; 50.0 µM): 93.2% | IC50 [2]: 3010 nM | inhibition ([2]; 50.0 µM): 96.5%

CCCNC(=O)C(C)NC(=O)N(C)Cc1csc(C)n1 (centres undefined)
relative solubility at 20 uM: 1 | relative solubility at 100 uM: 1 | inhibition ([1]; 20.0 µM): 0.814% | inhibition ([1]; 50.0 µM): -2.74% | inhibition ([2]; 20.0 µM): 0%

Cc1cc(C)cc(CS(=O)(=O)N[C@@]23COC[C@@H]2C3)c1 (stereo in doubt)
relative solubility at 20 uM: 1 | relative solubility at 100 uM: 1 | inhibition ([1]; 20.0 µM): 6.03% | inhibition ([1]; 50.0 µM): -9.38% | inhibition ([2]; 50.0 µM): 0%

O=C(NC1CCCCC1NC(=O)c1ccncc1)c1ccccc1 (centres undefined)
relative solubility at 20 uM: 1 | relative solubility at 100 uM: 1 | inhibition ([1]; 50.0 µM): -22.4% | inhibition ([2]; 20.0 µM): 0% | inhibition ([2]; 50.0 µM): 0%

C=CC(=O)N(c1ccc(C(C)(C)C)cc1)C(C(=O)NC(C)CC)c1cccnc1 (centres undefined)
relative solubility at 20 uM: 1 | relative solubility at 100 uM: 1 | inhibition ([1]; 20.0 µM): 16.8% | inhibition ([1]; 50.0 µM): 32.5% | inhibition ([2]; 20.0 µM): 3.71% | inhibition ([2]; 50.0 µM): 23.9%

CCCSCC(=O)C(C#N)C(=O)Nc1ccc(F)cc1F (centres undefined)
relative solubility at 20 uM: 1.01 | relative solubility at 100 uM: 1.01 | inhibition ([1]; 50.0 µM): 21.8% | inhibition ([2]; 20.0 µM): 3.06% | inhibition ([2]; 50.0 µM): 3.54%

O=C(CCl)N1CCN(Cc2cccc(Cl)c2)C[C@@H]1Cc1ccccc1 (stereo in doubt)
relative solubility at 20 uM: 0.97 | relative solubility at 100 uM: 0.92 | inhibition ([1]; 20.0 µM): 22.5% | inhibition ([1]; 50.0 µM): 45.2% | IC50 [2]: 18900 nM | inhibition ([2]; 50.0 µM): 66.6%

C=CC(=O)N(c1ccc(C(C)(C)C)cc1)C(C(=O)Nc1ccc(F)cc1C)c1cccnc1 (centres undefined)
relative solubility at 20 uM: 0.96 | relative solubility at 100 uM: 0.91 | inhibition ([1]; 20.0 µM): 5.61% | inhibition ([1]; 50.0 µM): 13.9% | inhibition ([2]; 50.0 µM): 1.37%

O=C(CCl)N1CCC(C(=O)N2CCCCC2)CC1
relative solubility at 20 uM: 1 | relative solubility at 100 uM: 1 | inhibition ([1]; 20.0 µM): 18.5% | inhibition ([1]; 50.0 µM): 31.4% | inhibition ([2]; 20.0 µM): 0.506%

N#Cc1ccc(Nc2ccc(NC(=O)Nc3cccnc3)cc2)nc1
relative solubility at 20 uM: 1 | relative solubility at 100 uM: 0.91 | inhibition ([1]; 20.0 µM): -1.31% | inhibition ([1]; 50.0 µM): -3.7% | inhibition ([2]; 20.0 µM): 0% | inhibition ([2]; 50.0 µM): 0%

C=CC(=O)N(c1cc(C(C)(C)C)n[nH]1)C(C(=O)Nc1ccc(Cl)cc1)c1cccnc1 (centres undefined)
relative solubility at 20 uM: 0.78 | relative solubility at 100 uM: 0.68 | inhibition ([1]; 20.0 µM): 6.12% | inhibition ([1]; 50.0 µM): 19.5% | inhibition ([2]; 20.0 µM): 0%

O=C(C1CCN(c2ccncc2)CC1)N1CCS(=O)(=O)CC1
relative solubility at 20 uM: 1 | relative solubility at 100 uM: 1 | inhibition ([1]; 50.0 µM): -27.4% | inhibition ([2]; 20.0 µM): 19.7% | inhibition ([2]; 50.0 µM): 42.9%

O=C(C1CCN(c2ccncc2)CC1)N1CCOCC1
relative solubility at 20 uM: 1 | relative solubility at 100 uM: 1 | inhibition ([1]; 50.0 µM): -22.6% | inhibition ([2]; 20.0 µM): 0% | inhibition ([2]; 50.0 µM): 0%

C=CC(=O)N(c1ccc2ncsc2c1)C(C(=O)Nc1c(C)cccc1CC)c1cccnc1 (centres undefined)
relative solubility at 20 uM: 0.97 | relative solubility at 100 uM: 0.97 | inhibition ([1]; 20.0 µM): 7.67% | inhibition ([1]; 50.0 µM): 10.7% | inhibition ([2]; 20.0 µM): 0%

N#Cc1cc(Cl)cc(NC(=O)Nc2cccnc2)c1
relative solubility at 20 uM: 0.99 | relative solubility at 100 uM: 0.88 | inhibition ([1]; 20.0 µM): 23% | inhibition ([1]; 50.0 µM): 43.9% | inhibition ([2]; 20.0 µM): 6.78% | inhibition ([2]; 50.0 µM): 36.5%

CC(C)NC1CCN(c2ccc(S(N)(=O)=O)cc2)CC1
relative solubility at 20 uM: 1 | relative solubility at 100 uM: 0.98 | inhibition ([1]; 20.0 µM): -1.27% | inhibition ([1]; 50.0 µM): -1.56% | inhibition ([2]; 20.0 µM): 0.29% | inhibition ([2]; 50.0 µM): 0.505%

CS(=O)(=O)Nc1cccc(C(=O)Nc2cccc(N3CCCC3=O)c2)c1
relative solubility at 20 uM: 1 | relative solubility at 100 uM: 0.99 | inhibition ([1]; 20.0 µM): 0.866% | inhibition ([1]; 50.0 µM): 5.19% | inhibition ([2]; 20.0 µM): 0%

O=C(Cc1cccc(Cl)c1)Nn1cnc2ccccc2c1=O
relative solubility at 20 uM: 1 | relative solubility at 100 uM: 1 | inhibition ([1]; 20.0 µM): 70.9% | inhibition ([1]; 50.0 µM): 87% | inhibition ([2]; 50.0 µM): 0%

N#Cc1cccc(C2CN(C(=O)CCl)Cc3ccccc32)c1 (centres undefined)
relative solubility at 20 uM: 1 | relative solubility at 100 uM: 0.99 | inhibition ([1]; 20.0 µM): 98.8% | inhibition ([1]; 50.0 µM): 95.3%

CCn1c(CSc2nc(C)c(C)n2CC2CCCO2)nc2cc(S(=O)(=O)N(C)C)ccc21 (centres undefined)
relative solubility at 20 uM: 0.85 | relative solubility at 100 uM: 0.84 | inhibition ([1]; 20.0 µM): -23.6% | inhibition ([1]; 50.0 µM): -3.59%

COc1cc(Cl)cc(OC(=O)Nc2cccnc2)c1
relative solubility at 20 uM: 1 | relative solubility at 100 uM: 1

O=C(CCl)N1CCN(Cc2ccsc2)CC1
relative solubility at 20 uM: 1 | relative solubility at 100 uM: 0.99 | inhibition ([1]; 20.0 µM): 98.8% | inhibition ([1]; 50.0 µM): 99.4%

Cc1ccncc1NC(=O)Cc1cccc(Cl)c1
relative solubility at 20 uM: 1 | relative solubility at 100 uM: 1

O=C(/C=C/C=C/c1ccc2c(c1)OCO2)N1CCCCC1
relative solubility at 20 uM: 1 | relative solubility at 100 uM: 0.97 | inhibition ([2]; 20.0 µM): 0%

O=C(CCl)N1CCN(Cc2cccs2)CC1
relative solubility at 20 uM: 1 | relative solubility at 100 uM: 1 | inhibition ([1]; 20.0 µM): 94.5% | inhibition ([1]; 50.0 µM): 99%

Cc1nnc(NC(=O)[C@@H]2COc3ccc(Cl)cc32)n1C1CC1 (stereo in doubt)
relative solubility at 20 uM: 1 | relative solubility at 100 uM: 1

O=C(Cc1ccsc1)N1CCN(c2cc(-c3cccs3)n[nH]2)CC1
inhibition ([1]; 20.0 µM): 13.1% | inhibition ([1]; 50.0 µM): 42.2% | IC50 [2]: 78200 nM

CSC1=C(C#N)C2(CCCCC2)C(C#N)=C(NC(=O)CCl)N1
IC50 [1]: 1140 nM | IC50 [2]: 1520 nM | inhibition ([2]; 50.0 µM): 97.5%

O=C(Cc1cc(Cl)cc(OC2CC(=O)N2)c1)Nc1cncc2ccccc12 (centres undefined)
IC50 [1]: 203 nM | IC50 [2]: 157 nM
